Results reported in the Kinase Knowledgebase extract (Sharma et al. 2016).
In brackets after ≈: the same amount, converted by molar mass.

Legend:
[1] = target: EGFR (human) (UniProt P00533); conditions: mda-mb-435
[2] = target: EGFR (human) (UniProt P00533); conditions: sw 620
[3] = target: EGFR (human) (UniProt P00533); conditions: a431
[4] = target: EGFR (human) (UniProt P00533); conditions: 3t3
[5] = target: EGFR (human) (UniProt P00533); conditions: her2/3t3
[6] = target: EGFR (human) (UniProt P00533); conditions: sk-br-3

Chain of EGFR (human) (P00533 whole entry, looked up): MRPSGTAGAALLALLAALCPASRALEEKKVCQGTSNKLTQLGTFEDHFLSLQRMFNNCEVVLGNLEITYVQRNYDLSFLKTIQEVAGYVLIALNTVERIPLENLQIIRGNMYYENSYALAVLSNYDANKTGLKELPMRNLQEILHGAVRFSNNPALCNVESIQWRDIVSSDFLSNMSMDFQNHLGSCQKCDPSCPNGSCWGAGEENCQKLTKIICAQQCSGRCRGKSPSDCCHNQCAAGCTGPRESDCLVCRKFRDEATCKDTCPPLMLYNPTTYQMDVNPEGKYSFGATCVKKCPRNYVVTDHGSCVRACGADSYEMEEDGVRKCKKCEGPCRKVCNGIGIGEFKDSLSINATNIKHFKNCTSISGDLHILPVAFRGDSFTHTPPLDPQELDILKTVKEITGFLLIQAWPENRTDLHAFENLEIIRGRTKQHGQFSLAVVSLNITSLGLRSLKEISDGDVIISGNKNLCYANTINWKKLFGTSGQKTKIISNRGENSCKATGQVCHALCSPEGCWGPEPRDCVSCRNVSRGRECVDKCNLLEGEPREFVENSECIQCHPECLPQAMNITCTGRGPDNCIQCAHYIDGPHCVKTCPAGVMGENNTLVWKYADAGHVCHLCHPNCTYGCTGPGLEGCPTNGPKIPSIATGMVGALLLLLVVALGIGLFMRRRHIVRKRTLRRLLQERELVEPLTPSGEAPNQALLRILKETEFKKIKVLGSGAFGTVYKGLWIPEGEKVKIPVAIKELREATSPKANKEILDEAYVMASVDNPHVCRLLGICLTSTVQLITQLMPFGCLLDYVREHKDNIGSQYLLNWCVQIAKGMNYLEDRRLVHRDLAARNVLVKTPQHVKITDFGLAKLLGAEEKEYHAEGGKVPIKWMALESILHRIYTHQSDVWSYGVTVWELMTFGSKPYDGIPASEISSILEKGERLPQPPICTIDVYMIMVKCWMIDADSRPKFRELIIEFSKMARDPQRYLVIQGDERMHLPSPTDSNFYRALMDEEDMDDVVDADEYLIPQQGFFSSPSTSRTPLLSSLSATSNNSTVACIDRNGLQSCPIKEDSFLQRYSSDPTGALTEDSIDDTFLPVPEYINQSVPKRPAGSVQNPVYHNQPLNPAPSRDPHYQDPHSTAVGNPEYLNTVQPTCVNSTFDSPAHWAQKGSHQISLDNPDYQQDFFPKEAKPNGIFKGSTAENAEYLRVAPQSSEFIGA

`C=CCN(C)CC#CC(=O)Nc1ccc2ncc(C#N)c(Nc3cccc(Br)c3)c2c1` was tested, and the IC50 [1] was 0.1 µg/mL (≈ 0.211 µM) and the IC50 [2] was 0.1 µg/mL (≈ 0.211 µM).
In the case of `COCCN(CC#CC(=O)Nc1ccc2ncc(C#N)c(Nc3cccc(Br)c3)c2c1)CCOC`, the IC50 [3] is reported as 0.1 µg/mL (≈ 0.186 µM), the IC50 [1] is reported as 0.2 µg/mL (≈ 0.373 µM) and the IC50 [2] is reported as 0.5 µg/mL (≈ 0.932 µM).
Molecule `COCCN(C)CC#CC(=O)Nc1ccc2ncc(C#N)c(Nc3cccc(Br)c3)c2c1` has an IC50 [3] of 0.05 µg/mL (≈ 0.102 µM), an IC50 [1] of 0.284 µg/mL (≈ 0.577 µM) and an IC50 [2] of 0.239 µg/mL (≈ 0.485 µM).
Work on `COc1cc2ncc(C#N)c(Nc3ccc(F)c(Cl)c3)c2cc1NC(=O)/C=C\CN1CCCC(CO)C1` (stereo not given) yielded an IC50 [4] of 2.87 µg/mL (≈ 5.48 µM), an IC50 [5] of 0.375 µg/mL (≈ 0.716 µM) and an IC50 [3] of 0.232 µg/mL (≈ 0.443 µM). It also gave an IC50 [1] of 1.83 µg/mL (≈ 3.49 µM) and an IC50 [2] of 1.73 µg/mL (≈ 3.3 µM).
In the case of `CN1CCC=C(C(=O)Nc2ccc3ncc(C#N)c(Nc4cccc(Br)c4)c3c2)C1`, the IC50 [3] is reported as 0.369 µg/mL (≈ 0.798 µM), the IC50 [6] is reported as 1.5 µg/mL (≈ 3.23 µM) and the IC50 [1] is reported as 3.19 µg/mL (≈ 6.91 µM). It also gave an IC50 [2] greater than 5 µg/mL.
For `COCCN(C)C/C=C\C(=O)Nc1cc2c(Nc3ccc(F)c(Cl)c3)c(C#N)cnc2cc1OC`, the IC50 [4] was 2.04 µg/mL (≈ 4.1 µM), the IC50 [5] was 0.192 µg/mL (≈ 0.386 µM) and the IC50 [3] was 0.245 µg/mL (≈ 0.492 µM). For the same molecule, the IC50 [6] was 0.107 µg/mL (≈ 0.215 µM), the IC50 [1] was 2.07 µg/mL (≈ 4.16 µM) and the IC50 [2] was 1.53 µg/mL (≈ 3.07 µM).
With `COC[C@@H]1CCCN1CC#CC(=O)Nc1ccc2ncc(C#N)c(Nc3cccc(Br)c3)c2c1` the IC50 [1] was 0.3 µg/mL (≈ 0.579 µM) and the IC50 [2] was 0.1 µg/mL (≈ 0.193 µM).
`CCOc1c(Nc2ccc3ncc(C#N)c(Nc4cccc(Br)c4)c3c2)c(=O)c1=O` gave an IC50 [3] of 4.91 µg/mL (≈ 10.6 µM), an IC50 [6] of 1.74 µg/mL (≈ 3.76 µM) and an IC50 [1] of 27.6 µg/mL (≈ 59.6 µM). For the same molecule, the IC50 [2] was 18 µg/mL (≈ 38.8 µM).
`COc1cc2ncc(C#N)c(Nc3ccc(F)c(Cl)c3)c2cc1NC(=O)/C=C/CN1CCC2(CC1)OCCO2` showed an IC50 [4] of 2.79 µg/mL (≈ 5.05 µM), an IC50 [5] of 0.35 µg/mL (≈ 0.634 µM) and an IC50 [3] of 0.283 µg/mL (≈ 0.513 µM). It also gave an IC50 [6] of 0.188 µg/mL (≈ 0.341 µM), an IC50 [1] of 3.32 µg/mL (≈ 6.01 µM) and an IC50 [2] of 2.51 µg/mL (≈ 4.55 µM).
`COCCOCC#CC(=O)Nc1ccc2ncc(C#N)c(Nc3cccc(Br)c3)c2c1` was tested, and the IC50 [3] was 0.9 µg/mL (≈ 1.88 µM), the IC50 [6] was 0.8 µg/mL (≈ 1.67 µM) and the IC50 [1] was 3.5 µg/mL (≈ 7.3 µM). It also gave an IC50 [2] of 0.4 µg/mL (≈ 0.834 µM).
In the case of `COC[C@@H]1CCCN1C/C=C/C(=O)Nc1cc2c(Nc3ccc(F)c(Cl)c3)c(C#N)cnc2cc1OC`, the IC50 [4] is reported as 2.1 µg/mL (≈ 4.01 µM), the IC50 [5] is reported as 0.329 µg/mL (≈ 0.628 µM) and the IC50 [3] is reported as 0.234 µg/mL (≈ 0.447 µM). It also gave an IC50 [6] of 0.148 µg/mL (≈ 0.282 µM), an IC50 [1] of 1.74 µg/mL (≈ 3.32 µM) and an IC50 [2] of 1.24 µg/mL (≈ 2.37 µM).
